Patent US7494714B2, “Surfaces that resist the adsorption of biological species” (President & Fellows of Harvard College, priority 2000, dated 2009)
Where two headings read alike, the source gives them in different places. Where a SMILES comes first, the peptide text is derived from it. [ ]: non-standard residue; d: D form. Sar = CNCC(=O)O

Key:
[1] = target: lysozyme (Gallus gallus, UniProt P00698); experiment: SPR adsorption of lysozyme to SAMs / grafted polymer films; format: binding; details: for % ML 3 min / dR/dt on: lysozyme; for % ML 3 min / dR/dt on / % Lys off: single-component SAMs (a) and mixed SAMs (b)
[2] = target: T1, fibrinogen (Bos taurus, UniProt P02672+P02676+P12799); experiment: SPR adsorption of fibrinogen to SAMs / grafted polymer films; format: binding, bovine; details: for % ML 30 min / % ML 3 min / dR/dt on: fibrinogen; for % ML 30 min / dR/dt on / % Fib off: single-component SAMs (a) and mixed SAMs (b); for % ML 3 min: single-component SAMs (a, RSH) and mixed SAMs (b, RNH2)
T1 sequence (P02672 20-615): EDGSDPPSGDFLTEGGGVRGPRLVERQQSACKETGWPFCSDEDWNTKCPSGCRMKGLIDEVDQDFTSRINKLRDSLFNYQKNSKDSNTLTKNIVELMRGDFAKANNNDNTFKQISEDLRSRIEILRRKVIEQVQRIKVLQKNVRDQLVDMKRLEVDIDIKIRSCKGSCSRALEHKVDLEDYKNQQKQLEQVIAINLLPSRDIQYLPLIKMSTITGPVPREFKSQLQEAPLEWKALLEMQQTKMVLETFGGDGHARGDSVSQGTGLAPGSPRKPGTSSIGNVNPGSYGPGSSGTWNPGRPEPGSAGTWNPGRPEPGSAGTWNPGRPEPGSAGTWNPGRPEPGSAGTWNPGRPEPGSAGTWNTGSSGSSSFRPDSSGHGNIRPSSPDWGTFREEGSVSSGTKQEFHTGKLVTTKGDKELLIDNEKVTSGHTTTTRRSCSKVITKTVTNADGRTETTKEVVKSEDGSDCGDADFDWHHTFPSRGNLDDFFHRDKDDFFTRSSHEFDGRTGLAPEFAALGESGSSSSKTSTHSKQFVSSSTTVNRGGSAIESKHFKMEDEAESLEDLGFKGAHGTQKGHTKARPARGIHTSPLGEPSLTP
T1 sequence (P02676 1-468): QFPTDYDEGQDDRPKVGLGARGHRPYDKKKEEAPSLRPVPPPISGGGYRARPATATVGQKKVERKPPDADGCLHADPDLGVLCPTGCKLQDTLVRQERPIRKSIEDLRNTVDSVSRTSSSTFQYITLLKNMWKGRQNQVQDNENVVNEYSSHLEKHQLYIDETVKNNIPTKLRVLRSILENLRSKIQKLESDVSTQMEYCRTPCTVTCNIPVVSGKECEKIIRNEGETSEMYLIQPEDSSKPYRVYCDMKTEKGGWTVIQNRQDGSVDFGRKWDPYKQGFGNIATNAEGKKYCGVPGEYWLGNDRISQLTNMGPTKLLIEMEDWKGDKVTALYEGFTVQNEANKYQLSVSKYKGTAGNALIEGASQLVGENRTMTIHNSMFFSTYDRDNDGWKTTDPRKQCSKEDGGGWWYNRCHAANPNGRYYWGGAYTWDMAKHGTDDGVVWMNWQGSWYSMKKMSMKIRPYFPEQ
T1 sequence (P12799 25-444): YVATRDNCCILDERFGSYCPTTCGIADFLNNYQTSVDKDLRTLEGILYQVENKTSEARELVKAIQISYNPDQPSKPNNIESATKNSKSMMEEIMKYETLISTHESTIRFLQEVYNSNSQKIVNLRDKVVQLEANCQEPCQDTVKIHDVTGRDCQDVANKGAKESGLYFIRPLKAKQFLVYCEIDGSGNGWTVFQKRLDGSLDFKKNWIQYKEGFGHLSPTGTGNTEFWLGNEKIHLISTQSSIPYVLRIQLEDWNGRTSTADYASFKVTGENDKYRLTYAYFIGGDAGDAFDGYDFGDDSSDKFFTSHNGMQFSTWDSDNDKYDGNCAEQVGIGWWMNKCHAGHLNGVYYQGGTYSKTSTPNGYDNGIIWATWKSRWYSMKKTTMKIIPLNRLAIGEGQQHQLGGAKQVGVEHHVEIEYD

[3] = mixed SAM —CONRR′/—CO2H, 1 mg/mL lysozyme flowed 3 min
[4] = mixed SAM —CONRR′/—CO2H, 1 mg/mL lysozyme flowed 30 min
[5] = mixed SAM —CONRR′/—CO2H, 1 mg/mL fibrinogen flowed 3 min, relative to —CONH(CH2)10CH3/—CO2H SAM
[6] = mixed SAM —CONRR′/—CO2H, 1 mg/mL fibrinogen flowed 30 min

Chain of lysozyme (P00698 19-147): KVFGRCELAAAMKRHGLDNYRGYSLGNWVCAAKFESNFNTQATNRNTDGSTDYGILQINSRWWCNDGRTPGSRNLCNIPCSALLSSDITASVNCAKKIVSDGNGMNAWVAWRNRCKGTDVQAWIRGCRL

Row | Compound | % Lysoff (percent decrease in adsorbed protein during 10 minute PBS wash) ([1]; mixed SAM —CONRR′/—CO2H) [%] | dR/dton lysozyme (maximum initial rate of adsorption) ([1]; mixed SAM —CONRR′/—CO2H) [RU/sec] | % MLlys 3 min [1, 3] [%] | % MLlys 30 min [1, 4] [%] | dR/dton fibrinogen (maximum initial rate of adsorption) ([2]; mixed SAM —CONRR′/—CO2H) [RU/sec] | % MLfib 3 min [2, 5] [%] | % MLfib 30 min [2, 6] [%] | % Fiboff (percent decrease in adsorbed protein during 10 minute PBS wash) ([2]; mixed SAM —CONRR′/—CO2H) [%] | also measured
1 | CNCC(=O)N(C)CC(=O)N(C)CC(=O)N(C)CC(=O)N(C)CC(=O)N(C)C [H(CH3)N(Sar)5N(CH3)2] | 14 ± 4 | 50 ± 20 | 0.8 ± 0.7 | 1.0 ± 0.2 | 50 ± 10 | 0.6 ± 0.3 | 1.3 ± 0.1 |  | 
2 | CNCC(=O)N(C)C | 740 ± 9 | 290 ± 130 | 0.2 ± 0.1 | 2.4 ± 0.3 | 50 ± 23 | 1.0 ± 0.0 | 9.1 ± 0.3 | 28 ± 0.7 | 
3 | N#CCNCC#N [HN(CH2CN)2] | 110 ± 1 | 2200 ± 500 | 36 ± 0.5 | 92 ± 0.3 | 2200 ± 500 | 54 ± 3.8 | 73 ± 3 | 7.9 ± 0.9 | 
4 | OCCOCCOCCOCCCCCCCCCCCS [Entry 3a, HOEG3(CH2)11SH, reference compound] |  |  |  |  |  |  |  |  | % ML 3 min ([1]; footnote b (30 minutes)): 0.2%; % ML 3 min [1]: 0.2%; % ML 30 min [2]: 0.2%; % ML 3 min [2]: 0.2%
5 | CNC [HN(CH3)2] |  |  |  |  |  |  |  |  | % Lysoff (percent decrease in adsorbed protein during 10 minute PBS wash) [1]: 120 ± 1%; % MLlys 3 min [1]: 43 ± 16%; % MLlys 30 min [1]: 80 ± 3%; dR/dton lysozyme (maximum initial rate of adsorption) [1]: 2400 ± 260 RU/sec; % Fiboff (percent decrease in adsorbed protein during 10 minute PBS wash) [2]: 24 ± 0.1%; % MLfib 3 min [2]: 26 ± 6%; % MLfib 30 min [2]: 54 ± 0.8%; dR/dton fibrinogen (maximum initial rate of adsorption) [2]: 160 ± 30 RU/sec
6 | CNCCNC | 110 ± 5 | 110 ± 60 | 4.3 ± 0.1 | 7.8 ± 0.0 | 77 ± 30 | 4.4 ± 0.8 | 8.5 ± 0.0 | 7.5 ± 0.4 | 
7 | OCCOCCN1CCNCC1 | 110 ± 5 | 20 ± 2 | 4.5 ± 0.0 | 27 ± 10 | 54 ± 10 | 1.2 ± 0.1 | 3.7 ± 0.0 | 1.8 ± 0.1 | 
8 | NCC1COCCOCCOCCOCCOCCO1 (centres unmarked) | 14 ± 1.3 | 75 ± 40 | 3.9 ± 0.3 | 9.6 ± 0.5 | 320 ± 110 | 44 ± 0.9 | 59 ± 2.3 | 9.7 ± 0.5 | 
9 | N[C@H]1C(O)O[C@H](CO)[C@@H](O)[C@@H]1O (some centres unmarked) | 330 ± 0.2 | 620 ± 280 | 7.8 ± 0.2 | 25 ± 2.1 | 210 ± 120 | 31 ± 0.7 | 55 ± 1.1 | 11 ± 0.0 | 
10 | Nc1ccc(O[C@@H]2O[C@H](CO)[C@@H](O[C@@H]3O[C@H](CO)[C@H](O)[C@H](O)[C@H]3O)[C@H](O)[C@H]2O)cc1 | 190 ± 16 | 290 ± 120 | 3.7 ± 0.1 | 9.3 ± 0.4 | 130 ± 80 | 17 ± 1.4 | 32 ± 0.5 | 7.4 ± 0.4 | 
11 | N#CCCNCCC#N [HN(CH2CH2CN)2] | 290 ± 8 | 2700 ± 160 | 17 ± 1.0 | 40 ± 2.0 | 590 ± 240 | 43 ± 1.0 | 58 ± 1.6 | 20 ± 0.7 | 
12 | (CH3)2N(Sar)3-NHCO(CH2)15SH [Entry 5a] |  |  |  |  |  |  |  |  | % ML 3 min ([1]; footnote b (30 minutes)): 2.0%; % ML 3 min [1]: 1.8%; dR/dt on [1]: 33 RU/sec; % Lys off [1]: 18%; % ML 30 min [2]: 2.0%; dR/dt on [2]: 24 RU/sec; % ML 3 min [2]: 0.7%; % Fib off [2]: 5.7%
13 | Nc1ccc(O[C@@H]2O[C@H](CO)[C@H](O)[C@H](O)[C@H]2O)cc1 | 254 ± 10 | 1300 ± 260 | 11 ± 1.5 | 30 ± 3.3 | 570 ± 250 | 35 ± 5 | 49 ± 2.3 | 17 ± 0.7 | 
14 | C1COCCOCCOCCOCCOCCN1 | 72 ± 0.7 | 100 ± 50 | 2.1 ± 0.4 | 6.0 ± 0.5 | 45 ± 20 | 3.8 ± 0.7 | 11 ± 0.3 | 9.6 ± 0.9 | 
15 | CNCC(=O)N(C)CC(=O)N(C)CC(=O)N(C)C [H(CH3)N(Sar)3N(CH3)2] (H-[Sar]-[Sar]-[Sar]-NMe2) |  | 70 ± 30 | 0.6 ± 0.1 | 1.1 ± 0.3 | 60 ± 10 | 0.7 ± 0.1 | 2.0 ± 0.1 |  | % ML 3 min ([1]; footnote b (30 minutes)): 1.1%; % ML 3 min [1]: 0.6%; dR/dt on [1]: 70 RU/sec; % ML 30 min [2]: 2.0%; dR/dt on [2]: 60 RU/sec; % ML 3 min [2]: 0.7%
16 | CNC[C@H](OC)[C@H](OC)[C@H](OC)[C@H](COC)OC | 17 ± 40 | 100 ± 70 | 0.4 ± 0.4 | 6.1 ± 4 | 50 ± 50 | 0.8 ± 0.5 | 2.9 ± 1.4 | 18 ± 2 | % ML 3 min ([1]; footnote b (30 minutes)): 6.1 ±4%; % ML 3 min [1]: 0.4 ±0.4%; dR/dt on [1]: 100 ±70 RU/sec; % Lys off [1]: 17 ±40%; % ML 30 min [2]: 2.9 ±1.4%; dR/dt on [2]: 50 ±50 RU/sec; % ML 3 min [2]: 0.8 ±0.5%; % Fib off [2]: 18 ±2%
17 | CC(=O)NCCN | 580 ± 20 | 530 ± 120 | 1.4 ± 0.0 | 5.4 ± 0.3 | 50 ± 5 | 14 ± 1 | 40 ± 2 | 13 ± 1 | 
